This is an account of results in BindingDB's records for doi:10.1016/s0960-894x(98)00562-9 (The Procter & Gamble, 1999).

This experiment addresses Plasmin (Homo sapiens). As to the kind of experiment: Inhibitory activity of compound against Plasmin (HP).

On to `CC(C)(C)[C@@H](NC(=O)OC12CC3CC(CC(C3)C1)C2)C(=O)N[C@@H](Cc1ccccc1)C(=O)NC(Cc1ccc(NC(=N)N)cc1)C(=O)C(F)(F)F` (stereo partly drawn) [((R)-2,2-Dimethyl-1-{(S)-2-phenyl-1-[3,3,3-trifluoro-1-(4-guanidino-benzyl)-2-oxo-propylcarbamoyl]-ethylcarbamoyl}-propyl)-carbamic acid adamantan-1-yl ester], for which the affinity corresponds to a Ki of 120 nM.
The value for `N=C(N)Nc1ccc(CC(NC(=O)[C@H](Cc2ccccc2)NC(=O)[C@@H](CCc2ccccc2)NC(=O)OC23CC4CC(CC(C4)C2)C3)C(=O)C(F)(F)F)cc1` (stereo partly drawn) [((R)-3-Phenyl-1-{(S)-2-phenyl-1-[3,3,3-trifluoro-1-(4-guanidino-benzyl)-2-oxo-propylcarbamoyl]-ethylcarbamoyl}-propyl)-carbamic acid adamantan-1-yl ester] was 40 nM; that for `CC(C)(C)[C@@H](NC(=O)N1CCOCC1)C(=O)NCC(=O)NC(Cc1ccc(NC(=N)N)cc1)C(=O)C(F)(F)F` (stereo partly drawn) [Morpholine-4-carboxylic acid [(R)-2,2-dimethyl-1-({[3,3,3-trifluoro-1-(4-guanidino-benzyl)-2-oxo-propylcarbamoyl]-methyl}-carbamoyl)-propyl]-amide] was 110000 nM; that for `CC(C)(C)OC(=O)N[C@H](Cc1ccccc1)C(=O)N[C@H](C(=O)NC(Cc1ccc(NC(=N)N)cc1)C(=O)C(F)(F)F)c1ccc2ccccc2c1` (stereo partly drawn) [[(R)-1-({(S)-Naphthalen-2-yl-[3,3,3-trifluoro-1-(4-guanidino-benzyl)-2-oxo-propylcarbamoyl]-methyl}-carbamoyl)-2-phenyl-ethyl]-carbamic acid tert-butyl ester] was 60 nM.

What is called Ki is a measure of affinity in units of concentration, obtained from inhibition or displacement.
